Assay results reported in patent publication US20170275344A1, “POLYPEPTIDES AND USES THEREOF AS A DRUG FOR TREATMENT OF AUTOIMMUNE DISORDERS” (Compugen Ltd., priority 2014, published 2017).
Entries after “also recorded” stand apart in the source; their conditions may differ.

Experiments:
[1] = system: male DBA-1 mice; assay: Established collagen-induced arthritis (CIA), therapeutic regimen; assay type: in vivo, mouse
Protocol: Bovine type II collagen (CII) (RUNMC in house production, batch 03-04-08) at a concentration of 2 mg/ml in acetic acid 0.05M was emulsified in equal volumes of Freund's complete adjuvant (2 mg/ml of Mycobacterium tuberculosis strain H37Ra; Difco, Detroit, Mich.).
On day 0, 10-12 week old male DBA-1 mice (Janvier Elevage, France) (n=95) were immunized i.d. at the base of the tail with 100 μg of bovine CII. On day 21, mice received an intraperitoneal booster injection of 50 μg of CII dissolved in phosphate buffered saline (PBS), and the onset of arthritis occurred a few days after this booster.
Joint inflammation in each paw was scored visually, using a scale of 0-2 per paw with a maximal score of 8 per animal: 0=non inflamed, 1=mild inflammation, 1.5=marked inflammation, and 2=severe inflammation. Scoring was performed three times a week.
Treatment was started in established CIA early after onset of disease (i.e. therapeutic regimen), when the macroscopic scores per animal were between 0.25 and 1.25 (on a scale of 0-8). The i.p. injections were given three times per week for two weeks, after which the study was terminated and mice were terminally bled to collect serum. Thereafter, the knee and ankle joints were collected and stored in formalin. Histology was scored for inflammation and destruction on an arbitrary scale of 0-3, for five different parameters: • Joint inflammation • Cartilage proteoglycan (PG) depletion • Chondrocyte death • Cartilage erosion • Bone erosion
1. Negative control: PBS 2. Negative control mIgG2A (Bioxcell, BE0085): 10 mg/kg 3. C1ORF32 ECD-Fc (SEQ ID NO:42): 10 mg/kg 4. C1ORF32 ECD-Fc (SEQ ID NO:42): 5 mg/kg 5. Positive control: Enbrel (Wyeth, F01421) 5 mg/kg
Joints were fixed for at least 4 days in 4% formaldehyde, decalcified in 5% formic acid, and subsequently dehydrated and embedded in paraffin. Standard frontal sections of 7 μm were mounted on SuperFrost slides (Menzel-Glaser, Braunschweig, Germany). Haematoxylin and eosin (H&E) staining was performed to study joint inflammation. The severity of inflammation in the joints was scored on a scale of 0-3 (0=no cells, 1=mild cellularity, 2=moderate cellularity, and 3=maximal cellularity). To study proteoglycan (PG) depletion from the cartilage matrix, sections were stained with safranin O (SO) followed by counterstaining with fast green. Depletion of PG was determined using an arbitrary scale of 0-3, ranging from normal, fully stained cartilage to destained cartilage, fully depleted of PGs. Chondrocyte death was scored on a scale of 0-3 ranging from no loss of chondrocyte nuclei to complete empty cartilage surface. The degree of cartilage surface erosion was scored on a scale of 0-3, ranging from no damage to complete loss of articular cartilage. Bone destruction was graded separately on a scale of 0-3, ranging from no damage to the complete loss of bone structure. Histopathological changes in the joint were scored on three semiserial sections of the joint spaced 70 μm apart. Scoring was performed in a blindfolded manner.
Statistical analysis: Disease course data was analyzed using one-way ANOVA with repeated measures, with a Bonferroni's post-test of selected pairs to determine statistical differences between C1ORF32 ECD-Fc (SEQ ID NO:42) and Enbrel treated mice, each as compared to Control Ig (IgG2a) treated group.

[2] = system: psoriasis patients; details: cited from earlier work
[3] = system: healthy human skin transplanted onto beige-SCID mice; assay: Humanized psoriasis model: healthy human skin xenotransplants on beige-SCID mice injected with psoriatic patients' PBMCs; assay type: in vivo, mouse
From the text: In this model, psoriasis is induced in xenotransplants of healthy human skin transplanted onto beige severe combined immunodeficiency (SCID) mice followed by intradermal (i.d.) injection of IL-2 enriched Peripheral Blood Mononuclear Cells (PBMCs) isolated from blood of psoriasis patients (Nickoloff, 1995; Wrone-Smith, 1996 Gilhar et al., 2002, 2006, 2011). The activity of these compounds was compared to that of Enbrel, a TNF inhibitor which is an approved biological drug for treatment of psoriasis. As a control for model robustness, we used dexamethasone, a steroid with suppressive effects on inflammatory cytokines and chemokines such as TNF-alpha and interferon-gamma which cause severe psoriasis. All treatments were administered intradermally, except for dexamethasone which was given topically.
Study Protocol: A) Healthy human skin pieces with a width of 0.4 mm and surface area of 1.5×1.5 cm were provided from residual skin of routine plastic surgery procedures from the Plastic Surgery Department of the Rambam Medical Center, Israel. In addition, 20 mL blood samples were taken from psoriatic patients. B) Seventy (70) beige-severe combined immunodeficient mice (SCID) (weight˜20-25 g) were included in this study. Normal healthy human donor skin was transplanted onto the beige-SCID mice as previously described (Nickoloff et al., 1995; Wrone-Smith, 1996; Gilhar et al., 2002, 2006, 2011; Kalish et al., 2009) and the mice were divided into 7 groups. C) Peripheral Blood Mononuclear Cells (PBMCs) isolated from psoriatic patients' blood were cultured in the presence of IL-2 [Prospec, 100 U/mL of RPMI 1640 media, 10% human AB serum (Sigma, St. Louis, Mo.), 1% glutamine, 1% antibiotics (media components; Biological Industries, Kibbutz Beit Haemeck, Israel)] for 14 days, as previously described (Gilhar et al, 2002). D) Four weeks following engraftment, each mouse was injected intra-dermally (i.d.) into the grafted skin lesion, with 1×10^7 activated allogeneic enriched PBMCs from psoriatic patients (FIG. 20). Cells from different psoriasis patients were equally distributed between treatment groups so that each patient is represented in each treatment group. E) On the day of PBMCs injection into the skin grafts, mice were divided randomly into treatment groups (n=9-10 mice per group) and administration of all drugs started (FIG. 20). All tested compounds including the vehicle were given intradermally (intralesional), three times a week, except for dexamethasone which was given topically for 14 consecutive days (Table 3).
F) Twenty eight days after starting the injections and treatment, skin was harvested (FIG. 20). Grafts were analyzed for the following psoriatic parameters by histology: epidermal thickening (acanthosis), suprapapillary epidermal thinning (papillomatosis), hyperkeratosis, parakeratosis, orthokeratosis, agranulosis-hypogranulosis, appearance of neutrophils in the upper spinous layer or in the corneal cell layer—Munro microabscess, regular elongation of rete ridges, angiogenesis, edema and dilated tortuous blood vessels in the dermal papilla and mononuclear cell infiltrate in the papillary dermis. Epidermal thickness was measured as detailed below, and HLA-DR, ICAM-1, Ki-67 and immune infiltrates (anti-CD3 stain) were evaluated by immunohistochemistry (IHC).
The entire skin graft was excised and placed in 10% formal saline overnight. Then, the specimens were place in 70% ethanol and were embedded according to the standard H&E protocol. Histological assessment of the skin grafts was performed by light microscopy and evaluated by two blinded observers [the second observer evaluated random slides (about 25% of all slides) to compare the data obtained by the first observer. […] Epidermal thickness was determined with an ocular micrometer at a minimum of 50 points along the epidermis selected to represent points of maximal and minimal thickness.
Representative grafts were allocated for IHC analysis. […]

[4] = 28 days after start of treatment

Substance: Enbrel
- bone erosions (histology) ([1]; 5 mg/kg, day 14): significant reduction of bone erosions
- other histological parameters of inflammation and cartilage damage ([1]; 5 mg/kg, day 14): only a trend for protection
- arthritis (macroscopic) scores ([1]; positive control, 5 mg/kg i.p. 3x/wk for 2 wks): not as potent in reducing the arthritis scores as expected
- patients achieving 75% improvement in the psoriasis area-and-severity index (PASI 75) ([2]; at week 12): Forty nine
- patients achieving PASI 90 ([2]; clinical trials): 22%
- Healthy Skin (number of grafts) [3, 4]: 3/9
- Psoriasiform Skin (number of affected grafts, histological evaluation) [3, 4]: 6/9
- Total No. of Healthy Grafts (%) [3, 4]: 33%
- proliferation index (% Ki-67 positive cells) in the xenografted skin ([3]; IHC, vs vehicle treated group): trend of decrease in proliferation index
- Epidermal thickness of graft ([3]; Source of graft (Patient)): 683 μm
- Epidermal thickness of graft ([3]; Source of graft (Patient) B): 658 μm
- Epidermal thickness of graft ([3]; Source of graft (Patient) C): 770 μm
- Epidermal thickness of graft ([3]; Source of graft (Patient) D): 679 μm
- Epidermal thickness of graft ([3]; Source of graft (Patient) E): 678 μm
- Epidermal thickness of graft ([3]; Source of graft (Patient) G1): 830 μm
- Epidermal thickness of graft ([3]; Source of graft (Patient) H): 496 μm
- Epidermal thickness of graft ([3]; Source of graft (Patient) K): 296 μm
- Epidermal thickness of graft ([3]; Source of graft (Patient) P): 492 μm
- Epidermal thickness of grafts, Mean ([3]; mean of 9-10 mice, PBS mean 682): 620 μm
- epidermal thickness compared with the vehicle-treated group ([3]; one-tailed t-Test): no substantial effect on epidermal thickness; also recorded: no significant reduction in epidermal thickness
